Tests used:
[1] = molecular target: T1, Pyruvate kinase PKM (Homo sapiens, UniProt P14618); experiment: Activation of PKM2 (unknown origin) assessed as PEP conversion to pyruvate measured as concentration required for 50% activation by luminescence assay
Target sequence in this assay (P14618 whole entry): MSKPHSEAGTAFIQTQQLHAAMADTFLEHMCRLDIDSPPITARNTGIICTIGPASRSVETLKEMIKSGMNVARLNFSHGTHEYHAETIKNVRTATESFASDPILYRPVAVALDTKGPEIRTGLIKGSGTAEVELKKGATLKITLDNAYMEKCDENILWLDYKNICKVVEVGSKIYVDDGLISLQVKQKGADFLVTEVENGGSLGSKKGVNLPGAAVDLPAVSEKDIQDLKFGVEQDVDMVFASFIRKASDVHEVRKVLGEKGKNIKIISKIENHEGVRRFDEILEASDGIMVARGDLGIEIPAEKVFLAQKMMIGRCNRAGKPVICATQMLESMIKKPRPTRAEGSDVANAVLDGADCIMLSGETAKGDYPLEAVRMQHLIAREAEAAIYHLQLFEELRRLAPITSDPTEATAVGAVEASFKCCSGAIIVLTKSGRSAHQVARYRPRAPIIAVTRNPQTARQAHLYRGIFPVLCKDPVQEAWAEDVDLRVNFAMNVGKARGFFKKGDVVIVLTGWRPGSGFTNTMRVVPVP

[2] = molecular target: T1, Pyruvate kinase PKM; experiment: Activation of PKM2 in human A549 cells; format: cell-based
Target sequence in this assay (P14618 2-531 limits assumed): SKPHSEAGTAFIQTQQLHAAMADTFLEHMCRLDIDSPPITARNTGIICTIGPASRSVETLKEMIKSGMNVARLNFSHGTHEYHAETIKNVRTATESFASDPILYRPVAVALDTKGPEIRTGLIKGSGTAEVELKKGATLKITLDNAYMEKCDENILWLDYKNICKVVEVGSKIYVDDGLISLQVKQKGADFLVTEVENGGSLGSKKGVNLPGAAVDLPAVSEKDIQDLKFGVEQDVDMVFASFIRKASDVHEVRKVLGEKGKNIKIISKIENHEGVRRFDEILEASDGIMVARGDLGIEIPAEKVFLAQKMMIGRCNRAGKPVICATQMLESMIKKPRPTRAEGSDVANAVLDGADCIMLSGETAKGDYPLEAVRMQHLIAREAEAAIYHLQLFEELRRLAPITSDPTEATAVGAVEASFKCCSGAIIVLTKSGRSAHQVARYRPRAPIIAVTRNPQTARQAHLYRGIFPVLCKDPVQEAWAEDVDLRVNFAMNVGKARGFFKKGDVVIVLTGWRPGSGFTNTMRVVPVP

[3] = molecular target: T1, Pyruvate kinase PKM; experiment: Activation of PKM2 in human NCI-H1299 cells; format: cell-based
Target sequence in this assay (P14618 2-531 limits assumed): as above

SMILES: O=C(c1cc(Br)c[nH]1)N(Cc1cccc(F)c1)CC1CCC1
- AC50 ([1]; read-out: AC50): 3.85 µM

SMILES: O=C(c1cc(Br)c[nH]1)N(Cc1ccccc1)CC1CCCCC1
- AC50 [1]: Not Active

SMILES: O=C(c1cc(C(F)(F)F)n[nH]1)N(Cc1cccc2[nH]ccc12)CC1CCC1
- Activity [2]: 0.308 µM
- Activity [3]: 0.364 µM

SMILES: O=C(c1cc(Br)c[nH]1)N(Cc1ccc(O)cc1)CC1CCC1
- AC50 ([1]; read-out: AC50): 1.71 µM

SMILES: N#Cc1cc(C(=O)N(Cc2ccc(O)cc2F)CC2CCC2)[nH]n1
- AC50 ([1]; read-out: AC50): 4.47 µM

SMILES: O=C(c1cc(Cl)n[nH]1)N(Cc1ccc(O)cc1F)CC1CCC1
- Activity [2]: 0.45 µM
- Activity [3]: 0.3 µM

SMILES: O=C(c1cc(Br)c[nH]1)N(Cc1ccc(Cl)cc1)CC1CCC1
- AC50 [1]: Not Active

SMILES: O=C(c1cc(Br)c[nH]1)N(Cc1ccc(F)cc1)CC1CCC1
- AC50 ([1]; read-out: AC50): 12.1 µM

SMILES: O=C(c1cc(Br)c[nH]1)N(Cc1ccc(O)cc1F)CC1CCC1
- AC50 ([1]; read-out: AC50): 0.75 µM

SMILES: O=C(c1cc(Cl)n[nH]1)N(Cc1cccc2[nH]ccc12)CC1CCC1
- Activity [2]: 6.73 µM
- AC50 ([1]; read-out: AC50): 0.757 µM

SMILES: O=C(c1cc(Cl)n[nH]1)N(Cc1cccc2[nH]ncc12)CC1CCC1
- Activity [2]: 5.94 µM
- AC50 ([1]; read-out: AC50): 2.93 µM
- Activity [3]: 6.4 µM

SMILES: O=C(c1cc(Br)n[nH]1)N(Cc1cccc2[nH]cnc12)CC1CCC1
- Activity [2]: 1.99 µM
- Activity [3]: 1.42 µM

SMILES: O=C(c1cc(Br)n[nH]1)N(Cc1cccc2[nH]c(=O)sc12)CC1CCC1
- Activity [2]: 12.9 µM
- AC50 ([1]; read-out: AC50): 3.05 µM
- Activity [3]: 16.6 µM

SMILES: O=C(c1cc(Br)c[nH]1)N(Cc1ccccc1)CC1CCCC1
- AC50 [1]: Not Active

SMILES: COc1ccc(CN(CC2CCC2)C(=O)c2cc(Br)c[nH]2)cc1
- AC50 [1]: Not Active

SMILES: O=C(c1cc(Br)c[nH]1)N(Cc1ccccc1O)CC1CCC1
- AC50 ([1]; read-out: AC50): 1.29 µM

SMILES: O=C(c1cc(Br)c[nH]1)N(Cc1ccccc1F)CC1CCC1
- AC50 ([1]; read-out: AC50): 3.9 µM

SMILES: CCCCN(Cc1ccccc1)C(=O)c1cc(Br)c[nH]1
- AC50 ([1]; read-out: AC50): 6.33 µM

SMILES: O=C(c1cc(Br)c[nH]1)N(Cc1ccccc1)CC1CCC1
- AC50 ([1]; read-out: AC50): 2.3 µM

SMILES: CCCCCN(Cc1ccccc1)C(=O)c1cc(Br)c[nH]1
- AC50 ([1]; read-out: AC50): 4.45 µM

SMILES: Nc1ccc(CN(CC2CCC2)C(=O)c2cc(Br)c[nH]2)cc1
- AC50 [1]: Not Active

SMILES: O=C(c1cc(C(F)(F)F)n[nH]1)N(Cc1ccc(O)cc1F)CC1CCC1
- Activity [2]: 0.26 µM
- Activity [3]: 0.22 µM

SMILES: O=C(c1cc(Br)c[nH]1)N(Cc1cccc(O)c1)CC1CCC1
- AC50 ([1]; read-out: AC50): 3.03 µM

SMILES: O=C(c1cc(Br)c[nH]1)N(Cc1ccccc1)CC1CC1
- AC50 ([1]; read-out: AC50): 12.2 µM

SMILES: O=C(c1cc(Br)n[nH]1)N(Cc1ccc(O)cc1F)CC1CCC1
- Activity [2]: 0.06 µM
- AC50 ([1]; read-out: AC50): 0.034 µM
- Activity [3]: 0.055 µM

SMILES: CCCN(Cc1ccccc1)C(=O)c1cc(Br)c[nH]1
- AC50 ([1]; read-out: AC50): 6 µM

SMILES: Nc1cc(C(=O)N(Cc2ccc(O)cc2F)CC2CCC2)[nH]n1
- AC50 ([1]; read-out: AC50): > 30 µM

SMILES: N#Cc1ccc(CN(CC2CCC2)C(=O)c2cc(Br)c[nH]2)cc1
- AC50 [1]: Not Active

SMILES: O=C(NCc1ccccc1)c1cc(Br)c[nH]1
- AC50 ([1]; read-out: AC50): 36 µM

SMILES: O=C(c1cc(Br)n[nH]1)N(Cc1cccc2[nH]ncc12)CC1CCC1
- AC50 ([1]; read-out: AC50): 3.13 µM

SMILES: CCN(Cc1ccccc1)C(=O)c1cc(Br)c[nH]1
- AC50 [1]: Not Active

Source: ChEMBL document CHEMBL3102764, “Discovery of 3-(trifluoromethyl)-1H-pyrazole-5-carboxamide activators of the M2 isoform of pyruvate kinase (PKM2)” (Bioorg Med Chem Lett, 2014)
